Data on 2 molecules can be found in PMC8397634 (Journal of Natural Medicines, 2021).

Data set [1] has as its target T1, α4β2 nAChRs (Homo sapiens, UniProt P17787+P43681). The data set can be described thus: In vitro nAChR functional assay (automated patch-clamp, CHO cells). It is filed as cell-based. As for the experimental part:
Electrophysiological responses were recorded using an automated patch-clamp Patchliner Octo® system (Nanion Technologies, Munich, Germany) equipped with two EPC-10 Quadro patch-clamp amplifiers (HEKA Elektronik, Lambrecht, Germany) as described previously. Chinese hamster ovarian (CHO) cells stably expressing human α4β2 nAChRs (Charles River Laboratories, Wilmington, MA, USA) were used. All experiments were performed at room temperature (24 °C) and repeated at least three times. Data were analyzed using Patchmaster software (HEKA Elektronik). Offline data analysis was performed in Apache OpenOffice™ (v4.1.2; […]). Igor Pro software (v6.2.2.2; WaveMetrics, Lake Oswego, OR, USA) was used to determine EC50 values. […] The average values were then fitted to the Hill equation: I=Baseline+X^∧nH(Imax-Baseline)/X^∧nH+EC50^∧nH, where I is the current response, Baseline is the minimal current response, X is the agonist concentration, nH is the Hill coefficient, Imax is the maximal current, and EC50 is the agonist concentration producing half-maximal activation. […]

The subject of data set [2] is zebrafish (Danio rerio; strain AB). As for the experimental part:
The NTT conditions closely matched the most commonly used conditions described by. In brief, adult male and female wild-type zebrafish were treated with the compounds for 20 min in a final volume of 50 mL in a 250-mL treatment beaker, one fish at a time. The fish were briefly rinsed in fresh system water, and then immediately transferred to a trapezoidal tank (14.6-cm height × 5.5-cm width × 27.9-cm top length and × 23.6-cm bottom length) filled with 1.5 L system water. The behavior of the fish was monitored for the next 5 min using the Noldus EthoVision XT system (Wageningen, Netherlands), with the camera placed approximately 1 m from the test tank. The tanks were uniformly illuminated from above at approximately 200 lx, reported to be the optimal illumination condition for NTT [23]. Background noise was kept at a minimum during the test. All experimental parameters were monitored closely and kept as consistent as possible throughout the study. The part of the tank filled with water (11.5-cm height) was virtually divided into top, center, and bottom of equal heights (approximately 3.8 cm per segment) for the analyses. The average time spent at the top and bottom portions of the tank was analyzed to determine the anxiety-like behavior of fish. The average total distance traveled and freezing time (as defined by a complete cessation of movement except for gills and eyes) were calculated to determine the effects of the compounds on the general behavior of fish. The analyses were conducted for 1-min time bins. To account for any day-to-day variability in fish behavior, fish treated with vehicle were tested on the same day as the compounds. […] A minimum of 12 fish (6 females and 6 males) per condition were used for the study. The actual sample size per condition is indicated in Online Resource 1. […] The experimenters were blind to the test conditions. The NTT was validated with buspirone, a clinical anxiolytic drug, as previously described.
If not, the concentration was reduced until no obvious signs of tolerability problems were observed. […] The concentrations were calculated based on the free base molecular weight.
Two-way repeated measures analysis of variance (ANOVA) with Dunnett post hoc was used for the 1-min binned analysis of the zebrafish NTT data. Treatment was one factor, and time was the second factor. […] Thus, male and female datasets were combined for the final analyses. […] The EC50 values were determined by applying the nonlinear regression analysis. All analyses were conducted using GraphPad Prism v8.2.1 (GraphPad Software, San Diego, CA, USA).

The nature of data set [3]: Brain bioavailability assay in zebrafish (UPLC-HRMS of brain homogenate). The data set is classed as in vivo, Danio rerio. The following applies: both sexes, zebrafish (Danio rerio), in vivo, 1 mg/L; zebrafish brain after 20-min exposure; linear relationship assumed; mean ± SEM; read-out: Relative brain level per 1 mg/L compound. As for the experimental part:
Four fish (2 males and 2 females) per compound were used to determine the brain bioavailability of the compounds. Immediately after the 20-min compound treatment, the zebrafish were rinsed briefly to remove excessive compound on their body and terminated with 250 mg/L tricaine (CAS No. 886-86-2; Sigma). The fish were decapitated at the level of the gills using a surgical knife. The head was turned dorsal side down, and soft tissue was removed from the ventral side of the skull until the base of the skull was exposed. The skull was broken open and the bone from the ventral side of the brain was removed. The brain was then placed in a microcentrifuge tube, weighed, snap-frozen in liquid nitrogen, and stored at – 80 °C until the analysis.
Briefly, on the day of analysis, the brain samples were defrosted, resuspended in a methanol solution (2:1 [v/v] methanol:MilliQ water), and homogenized with vigorous agitation and ultrasonication (5 min each). The homogenate was centrifuged at 15,000 × rpm for 10 min, and the supernatant was analyzed using a UPLC-Q Exactive Orbitrap-HRMS system (Thermo Fisher Scientific™, Bremen, Germany). Chromatographic separation was achieved on a Synergi™ 4-µm Hydro-RP 80 Å, L.C. Column (250 × 4.6 mm; Phenomenex Inc., Torrance, CA, USA) with 0.1% formic acid in water (mobile phase A) and 0.1% formic acid in acetonitrile (mobile phase B). A gradient method at a 500 µL/min flow rate was applied as follows: (1) 5% B for 1 min, and (2) increase to 95% B over 7 min and hold for 2 min. The injection volume was 5 μL. The mass spectrometer was operated in electrospray positive mode (ESI, Thermo Fisher Scientific), while data acquisition was performed using the parallel reaction monitoring (PRM) and full scan modes. The source settings were set as follows: sheath gas flow rate = 60 psi; aux gas flow rate = 20 arbitrary units; spray voltage = 3.5 kV; capillary temperature = 280 °C; and sweep gas flow rate = 1. The full scan mode parameters were set as follows: resolution = 35,000 FWHM at 200 m/z; AGC target = 1E6; maximum injection time = 110 ms; and scan range = 100–350 m/z. The chromatographic and Orbitrap MS parameters for PRM analysis were the same as those in the full scan mode, except for: AGC target = 2E5; maximum IT = 60 ms; and resolution = 17,500 FWHM at 200 m/z. The XCalibur™ v4.0.27.19 software (Thermo Fisher Scientific) and TraceFinder™ v4.1 Forensic (Thermo Fisher Scientific, San José, CA, USA) were used for system control and data processing, respectively. The Q Exactive 2.8 SP 1 software (Thermo Fisher Scientific) was used to control the mass spectrometer.

Data set [4] relates to other molecular targets (175 in vitro binding and enzymatic assays). Nature of the data set: In vitro molecular target profiling (175 binding and enzymatic assays). As to conditions: 10 µM single concentration; 175 assays; effect greater than 50% considered significant. As for the experimental part:
(§1) All binding and functional assays for molecular target characterization were conducted by Eurofins Cerep SA (Celle-Lévescault, France) and Eurofins Panlabs Discovery Services Taiwan, Ltd. (New Taipei City, Taiwan) using their standard in vitro binding and functional assays (Online Source 2). The radioligand displacement binding assays employed the gold-standard filtration method using membrane preparations from stable cell lines expressing human or rodent target proteins to determine the interaction of the compounds with specific receptors, channels, and transporters. For this purpose, the competitive binding of test compounds against a [^125I]-, [^3H]-, or [^35S]-labeled agonist and/or antagonist was determined. The specific list of radiolabeled ligands and experimental conditions are summarized in Online Source 2. A single concentration of each compound (10 µM in 0.1% DMSO) was used for the screen. […] Negative values were considered to be an artifact arising from, for example, compounds interfering with the assay readout.
3.1. Experimental Conditions
In Vitro Pharmacology: Binding Assays
(§2) Assay Source Ligand Conc. Kd Non Specific Incubation Detection Bibl.

The target in the next data set is T2, muscle-type nAChR (Homo sapiens, UniProt P02708+P07510+Q07001).
T2 construct: TE671 cells; host or cells: TE671 cells (endogenous)
T2 sequence (P02708 21-457): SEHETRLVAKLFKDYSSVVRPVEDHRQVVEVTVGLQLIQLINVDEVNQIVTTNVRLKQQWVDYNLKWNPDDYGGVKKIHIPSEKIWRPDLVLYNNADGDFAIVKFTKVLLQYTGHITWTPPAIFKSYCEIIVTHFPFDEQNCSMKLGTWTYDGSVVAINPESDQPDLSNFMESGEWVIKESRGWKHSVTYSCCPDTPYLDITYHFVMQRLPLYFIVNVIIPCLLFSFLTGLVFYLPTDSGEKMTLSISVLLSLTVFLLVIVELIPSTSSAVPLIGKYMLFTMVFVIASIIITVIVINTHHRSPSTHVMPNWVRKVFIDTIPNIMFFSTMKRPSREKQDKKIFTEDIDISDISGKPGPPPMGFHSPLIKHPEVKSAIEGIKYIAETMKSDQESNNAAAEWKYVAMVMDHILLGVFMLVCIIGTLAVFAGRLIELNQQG
T2 sequence (Q07001 22-517): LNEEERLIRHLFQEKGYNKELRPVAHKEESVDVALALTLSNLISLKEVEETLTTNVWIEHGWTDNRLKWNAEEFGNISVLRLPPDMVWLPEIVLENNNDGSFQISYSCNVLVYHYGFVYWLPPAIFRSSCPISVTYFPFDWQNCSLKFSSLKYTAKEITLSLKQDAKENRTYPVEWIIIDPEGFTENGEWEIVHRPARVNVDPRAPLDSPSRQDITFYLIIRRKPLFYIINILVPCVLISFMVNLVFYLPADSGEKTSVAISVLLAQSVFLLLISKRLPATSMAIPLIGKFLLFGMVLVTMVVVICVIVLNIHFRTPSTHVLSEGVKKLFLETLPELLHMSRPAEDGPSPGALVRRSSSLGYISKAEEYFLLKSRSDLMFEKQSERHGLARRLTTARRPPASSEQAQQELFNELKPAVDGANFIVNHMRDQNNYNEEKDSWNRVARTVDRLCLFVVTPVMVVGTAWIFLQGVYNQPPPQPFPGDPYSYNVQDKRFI
T2 sequence (P07510 23-517): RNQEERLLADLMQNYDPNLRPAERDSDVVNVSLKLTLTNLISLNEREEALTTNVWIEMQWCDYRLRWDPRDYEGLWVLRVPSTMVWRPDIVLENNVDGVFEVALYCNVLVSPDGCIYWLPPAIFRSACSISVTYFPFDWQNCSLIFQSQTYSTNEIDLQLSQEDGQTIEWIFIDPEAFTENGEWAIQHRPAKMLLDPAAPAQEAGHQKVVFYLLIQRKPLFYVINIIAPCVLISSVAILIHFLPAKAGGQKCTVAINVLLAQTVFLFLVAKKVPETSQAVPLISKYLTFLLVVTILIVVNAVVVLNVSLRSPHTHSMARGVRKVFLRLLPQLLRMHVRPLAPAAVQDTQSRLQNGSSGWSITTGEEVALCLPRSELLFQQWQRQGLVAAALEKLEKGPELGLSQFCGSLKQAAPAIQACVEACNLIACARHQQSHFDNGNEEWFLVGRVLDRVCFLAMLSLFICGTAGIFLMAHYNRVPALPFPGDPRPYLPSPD
The data set can be described thus: Muscle-type nAChR radioligand binding (target profiling). As to conditions: 10 µM single concentration; effect greater than 50% considered significant. How it is done:
as §1, §2

Another data set concerns α7 nAChR. The following applies: ref 2 (Alijevic, et al.); cited from earlier work.
In data set [5] the target is T1, α4β2 nAChRs. Nature of the data set: In vitro α4β2 nAChR radioligand displacement binding assay. Further details: host or cells: SH-SY5Y cells (human recombinant), membrane preparation. As to conditions: 10 µM single concentration; effect greater than 50% considered significant. How it is done:
as §1, §2

Structures are written as SMILES. Read-outs that look alike come from different tables or passages of the source.

T1 sequence (P43681 29-627 limits assumed): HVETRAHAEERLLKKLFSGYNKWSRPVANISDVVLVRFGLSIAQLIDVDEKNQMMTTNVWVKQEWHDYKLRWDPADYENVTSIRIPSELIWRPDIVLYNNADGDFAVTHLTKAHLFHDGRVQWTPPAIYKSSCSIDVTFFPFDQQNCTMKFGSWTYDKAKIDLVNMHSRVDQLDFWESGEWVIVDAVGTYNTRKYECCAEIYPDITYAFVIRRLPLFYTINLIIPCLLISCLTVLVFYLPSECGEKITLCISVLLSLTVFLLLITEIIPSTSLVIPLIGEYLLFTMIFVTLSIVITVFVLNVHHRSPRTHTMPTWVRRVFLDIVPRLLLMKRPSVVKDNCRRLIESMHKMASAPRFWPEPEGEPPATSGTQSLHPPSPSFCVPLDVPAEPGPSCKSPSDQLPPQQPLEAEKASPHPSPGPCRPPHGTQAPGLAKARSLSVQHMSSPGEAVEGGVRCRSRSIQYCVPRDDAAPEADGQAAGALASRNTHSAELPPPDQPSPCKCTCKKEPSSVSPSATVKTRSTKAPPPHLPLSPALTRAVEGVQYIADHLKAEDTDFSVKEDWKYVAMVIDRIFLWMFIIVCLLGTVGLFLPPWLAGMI
T1 sequence (P17787 26-502): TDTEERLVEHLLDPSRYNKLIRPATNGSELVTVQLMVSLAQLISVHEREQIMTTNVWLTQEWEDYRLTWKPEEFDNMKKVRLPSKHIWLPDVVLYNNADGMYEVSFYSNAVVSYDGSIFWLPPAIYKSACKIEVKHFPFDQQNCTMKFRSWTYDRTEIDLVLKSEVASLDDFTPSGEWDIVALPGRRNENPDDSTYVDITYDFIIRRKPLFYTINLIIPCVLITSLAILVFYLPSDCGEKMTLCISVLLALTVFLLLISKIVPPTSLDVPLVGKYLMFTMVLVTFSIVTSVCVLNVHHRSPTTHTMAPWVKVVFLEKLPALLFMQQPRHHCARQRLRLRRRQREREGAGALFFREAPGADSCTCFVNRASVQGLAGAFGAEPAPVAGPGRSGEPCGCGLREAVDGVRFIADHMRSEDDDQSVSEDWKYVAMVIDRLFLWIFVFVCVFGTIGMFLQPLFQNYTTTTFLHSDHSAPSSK

As to `C1=CCC(c2cccnc2)NC1` (racemic) [Anatabine, ( ±)-Anatabine], at α4β2 nAChRs [1] (CHO, read-out: % activation of α4β2 nAChR (normalized to nicotine)), the Emax turned out to be 80%. The “Freezing time during NTT” value in data set [2] (0.3 mg/L) was “increased the freezing time during the first 3 min”. Further, in data set [2] (20-min treatment), the “Concentration effective in reducing anxiety-like behavior in NTT” value worked out at 10 mg/L. Moreover, the “Time spent at the bottom of the tank during NTT” value in data set [2] (highest concentration tested (10 mg/L), 20-min treatment) is on record as “significantly decreased the time spent at the bottom”. In addition, the “Total distance traveled during NTT” value in data set [2] (lowest (0.3 mg/L) and highest (10 mg/L) concentrations) is “slight but significant reduction in the total distance traveled”. Besides, the concentration at 20 min in data set [3] is 440 ± 150 ng/g. The “Binding to or regulation of other molecular targets” value in data set [4] is listed as “did not bind or regulate the activities of other molecular targets”. Besides, the “Binding to muscle-type nAChR in target profiling” value on muscle-type nAChR is given as “specific binding”. The “α7 nAChR agonist activity” value in the data set on α7 nAChR is “weak α7 nAChR agonist”. Moreover, the “Binding to α4β2 nAChR in target profiling” value on α4β2 nAChRs [5] is “specific binding”.

Regarding `CN1CCC[C@H]1c1cccnc1` [Nicotine, (–)-nicotine, reference compound], the “% activation of α4β2 nAChR (normalized to nicotine)” value at α4β2 nAChRs [1] turned out to be 100%. Further, in data set [2] (in vivo), the “Concentration effective in reducing anxiety-like behavior in NTT” value amounted to 0.3 mg/L. Moreover, the concentration at 20 min in data set [3] was 700 ± 140 ng/g. Moreover, the “Binding to or regulation of other molecular targets” value in data set [4] is “did not bind or regulate the activities of other molecular targets”. On muscle-type nAChR, the “Binding to muscle-type nAChR in target profiling” value is on record as “specific binding”. Also, in the data set on α7 nAChR, the “α7 nAChR agonist activity” value is on record as “weak α7 nAChR agonist”. On α4β2 nAChRs [5], the “Binding to α4β2 nAChR in target profiling” value is on record as “specific binding”.
